The values that follow come from patent US5441563A, “Highly insoluble azole embossing inhibitor and the use thereof” (Armstrong World Industries, Inc., priority 1994, dated 1995).

≈ marks a conversion by molar mass, not a printed value. Like-named read-outs stand apart in the source and are kept apart here. A value given as a limit tells only on which side of the number the result lay.

The nature of data set [1]: Stability of dispersions and ink compositions containing the inhibitor. It is filed as physicochemical. On the procedure:
A cationic dispersion of TTA-P was prepared using a quaternary ammonium salt, stearyl dimethylbenzylammonium chloride, (Maquat SC-18, Mason Chemical Co.), as the stabilizer. The product was first diminutized by grinding the coarse powder (TTA-P) for approximately 18 hours in a standard ball mill using a combination of 12 mm diameter spherical and 6 mm diameter×6 mm high cylindrical balls. Approximately 1/2 of the 1 L ball mill volume was filled for the grinding operation. […] The dispersion was then prepared by adding 2.35 parts Maquat SC-18 (85% active) to 37.65 parts deionized water and stirring until dissolved. A total of 40 parts of TTA-P was then added to the surfactant solution in 5 part increments with stirring, followed by agitation with a sonic dismembrator, (Fisher Model 3000). The sonic probe was inserted directly into the suspension and run on the highest setting for 1-2 minutes. A creamy dispersion resulted initially, with viscosity increasing with increasing solids content. The final suspension was a uniform paste with a concentration of 50% by weight solids.
A blue aqueous inhibitor ink was prepared by adding 0.20 parts of CIB 103 Blue Pigment (sold by Penn Color, Inc.) to 20 parts of CIE 94 Extender (sold by Penn Color, Inc.) and stirring to uniform coloration. Then 6.06 parts of the 50% suspension of TTA-P (prepared in Example 4) was then added to the ink mixture and stirred to uniform coloration.
An anionic dispersion paste of TTA-P was prepared with a polyoxyethylene branched nonylphenyl ether phosphate surfactant, (Rhodofac PE-50, Rhone Poulenc). Diminutization of the compound was performed by milling as described in Example 4. Dispersion of the compound was accomplished using the sonic dismembrator, also described in Example 4. Materials were combined in the proportion: 40 parts of deionized water, 2.06 parts of the surfactant and 40 parts of TTA-P. Materials were added in the listed sequence.
The anionic dispersion of TTA-P (Example 6) was added to an anionic ink formulation of Sicpa Corp. The resultant mixture consisted of 20 parts Sicpa Extender 694556, 0.20 parts Sicpa black ink 674554 and 6.06 parts of the 48.7% dispersion of the compound (Example 6).
A portion of BTA-P, the benzotriazole-piperazine derivative, was stably dispersed with the cationic surfactant stearyldimethylbenzylammonium chloride, (Maquat SC-18, Mason Chemical Co.). The compound was milled and dispersed as in Example 4. The materials were combined in the proportion: 20 parts deionized water, 1.18 parts Maquat SC-18, (85% active), and 33.16 parts BTA-P. The materials were added in the listed sequence. […] The paste was 61% by weight of BTA-P.
The cationic dispersion of BTA-P (Example 8) was added to a cationic ink formulation of Penn Color. The mixture consisted of 20 parts Penn Color Extender CIE 94, 0.20 parts Penn Color CIB 103 blue ink and 4.96 parts of the 61% dispersion of BTA-P (Example 8).
A portion of HTTA-P, the hydrogenated tolyltriazolepiperazine derivative, was colloidally dispersed with the cationic surfactant stearyldimethylbenzylammonium chloride, (Maquat SC-18, Mason Chemical Co.). The milling and dispersing procedures of Example 4 were followed. The materials were combined in the proportion: 21 parts deionized water, 1 part Maquat SC-18, (85% active), and 37 parts HTTA-P. The materials were added in the listed sequence. […] The paste was 62.7% by weight of HTTA-P.
The cationic dispersion of HTTA-P (Example 10) was added to a cationic ink formulation of Penn Color. The mixture consisted of 20 parts Extender CIE 94, 0.20 parts CIB 103 blue ink and 4.83 parts of the 62.7% dispersion of HTTA-P (Example 10).
Hitherto, dispersion of these new inhibitors directly into the ink formulation was not considered. The instability problems of other triazole inhibitors seemed to indicate that a surfactant in addition to that found in the ink and extender was required. […]

Data set [2] is described as follows: Inhibitor activity (IA), depth of chemical embossing and degree of expansion ranked against BTA-P (Table II). Particulars: for Inhibitor Activity (IA): 10% by weight inhibitor in ink, scale 1 to 5, BTA-P benchmark = 1, 7 mil plastisol, 185 °C, 1.9 min. Details: key to Inhibitor Activity (IA): 1: Excellent; 2: Very Good; 3: Good; 4: Fair; 5: Poor; None. How it is done: Table II sets forth a number of properties of the examples and comparative examples which were made and tested. Most of these compounds were prepared using the direct milling procedure and then evaluated for inhibitor activity, ghosting and embossing definition.
The inhibited inks (at 10% by weight inhibitor concentration) were printed on 7 mils of an expandable plastisol coated onto a glass mat which was saturated with a non-expandable plastisol. This was done on a flat-bed gravure proof press using a 100 line screen step-wedge gravure plate. The steps ranged from a deep shadow tone to a shallow highlight tone. The inks printed and dried without any tack.
The printed samples were coated with 10 mils of a clear plastisol wearlayer and heated for 1.9±0.1 minutes at an air temperature of 185°±2° C. in a Werner. Mathis oven to fuse and expand the foamable plastisol to about 14 mils (a 2:1 blow ratio). The thickness of the printed coated areas (i.e., restricted area) was measured in mils and compared to the thickness of the expanded unprinted surrounding areas. This difference was recorded as depth of chemical embossing and was used along with the degree of expansion in the inhibited area to access the inhibitor activity (IA).
The inhibitor activity of the BTA-P derivative was established as the benchmark and on a scale of 1 to 5 was given a rating of 1 (five on the scale being less than one mil of overall chemical embossing). This is a subjective ranking where the other compounds were evaluated for inhibitor activity by comparing them to BTA-P, both numerically and visually.

The nature of data set [3]: Stability of dispersions and ink compositions containing the inhibitor. It counts as physicochemical. To be noted: for Stability of ink mixture: sonicated.
A short description of a further data set: physchem. It is filed as physicochemical. Particulars: for Solubility in H2O / solubility at 24 h: water; for Solubility in H2O: 24 h.
The mark [4] stands for this setting: cationic aqueous ink with cationic dispersion.
The mark [5] stands for this setting: cationic dispersion paste, Maquat SC-18.

For orientation: solubility means the concentration that dissolves in the medium under given conditions.

Turning to “N,N'-Bis(Methylcyclohexyltriazol-1-yl Methyl) Piperazine [HTTA-P]”, the “Stability of ink mixture” value in data set [1] (setting [4]) is on record as “colloidally stable”. Further, the Stability of dispersion entry in data set [1] (setting [5]) is reported as “stable homogenous paste”. For the same molecule, the “Inhibitor Activity (IA)” value in data set [2] was determined as 1.

As for “N,N'-bis(tolyltriazol-1-yl methyl) piperazine [TTA-P]”, the “Stability of ink mixture” value in data set [3] (direct addition to anionic ink) was “homogenous and stable mixture”; in data set [3] (direct addition to cationic ink), “homogenous and stable mixture”; in data set [1] (anionic aqueous ink with anionic dispersion), “colloidally stable”; in data set [1] (setting [4]) it was “colloidally stable and disperse”. The Stability of dispersion entry in data set [1] (anionic dispersion paste, Rhodofac PE-50) is on record as “stable, homogenous paste”. For the same molecule, the “Solubility in iPrOH” value in the data set “physchem” (1440 min) was 0.204 % BY WT. In addition, the “Solubility in H2O” value in “physchem” was found to be 0.031 % BY WT. Besides, the “Inhibitor Activity (IA)” value in data set [2] turned out to be 1.

In the case of “1Bis(2-ethylhexyl)aminomethyltolyltriazole [TTA-EH, reference compound]”, the “Solubility in iPrOH” value in “physchem” (1440 min) is given as greater than 50 % BY WT. For the same molecule, the “Solubility in H2O” value in “physchem” is listed as less than 0.01 % BY WT. In addition, the “Inhibitor Activity (IA)” value in data set [2] came to 2.

Take `O=S(=O)(NCn1nnc2ccccc21)c1cccc(S(=O)(=O)NCn2nnc3ccccc32)c1` [BTA-BDSA, 1(1',3'-benzenedisulfonamido)methyl benzotriazole]: in the data set “physchem” (1440 min), the “Solubility in iPrOH” value came to 0.120 % BY WT. The same molecule gave a solubility at 24 h in “physchem” of 890 µg/mL (≈ 1790 µM). For the same molecule, the “Inhibitor Activity (IA)” value in data set [2] is 1.

`S=C(NCn1nnc2ccccc21)NCn1nnc2ccccc21` [BTA-TU, 1,3-bis(benzotriazol-1-ylmethyl) thiourea]: in “physchem” (1440 min), the “Solubility in iPrOH” value is 0.011 % BY WT. In addition, the concentration in solution in “physchem” (solubility at 24 h) came to 10 µg/mL (≈ 29.6 µM). Further, in data set [2], the “Inhibitor Activity (IA)” value is recorded as 2.

Consider `c1ccc2c(c1)nnn2CNCn1nnc2ccccc21` [BTA-A, bis(benzotriazol-1-ylmethyl) amine], for which the “Solubility in iPrOH” value in “physchem” (1440 min) is 0.028 % BY WT. Moreover, the concentration in solution in “physchem” (solubility at 24 h) was 390 µg/mL (≈ 1400 µM). Moreover, in data set [2], the “Inhibitor Activity (IA)” value is recorded as 1.

Consider `O=S(=O)(NCn1nnc2ccccc21)c1cccc2c(S(=O)(=O)NCn3nnc4ccccc43)cccc12` [BTA-NDSA, 1(1',5'-naphthalenedisulfonamido) methyl benzotriazole], for which the “Solubility in iPrOH” value in “physchem” (1440 min) amounted to 0.051 % BY WT. The solubility at 24 h in “physchem” came to 510 µg/mL (≈ 930 µM). Further, the “Inhibitor Activity (IA)” value in data set [2] came out at 1.

In the case of `O=C(NN(Cn1nnc2ccccc21)Cn1nnc2ccccc21)c1ccccc1` [BTA-HYR, 1-Bis(Benzotriazol-1'-yl Methyl)-2-Benzoyl Hydrazide], in “physchem” (1440 min), the “Solubility in iPrOH” value is 0.019 % BY WT. The same molecule yielded a solubility at 24 h in “physchem” of 60 µg/mL (≈ 151 µM). For the same molecule, in data set [2], the “Inhibitor Activity (IA)” value came to 1.

On to Tolyltriazole [TTA, reference compound], for which the “Solubility in iPrOH” value in the data set “physchem” (1440 min) was found to be 52.9 % BY WT. In addition, the “Solubility in H2O” value in “physchem” turned out to be 0.55 % BY WT. Further, the “Inhibitor Activity (IA)” value in data set [2] was 2.

Turning to `c1ccc2[nH]cnc2c1` [BI, Benzimidazole], the “Solubility in iPrOH” value in the data set “physchem” (isopropyl alcohol, room temperature, 24 hours) is listed as 15.30 % BY WT. Further, the solubility at 24 h in “physchem” (H2O, room temperature, 24 hours, read-out: Solubility in H2O) was determined as 5000 µg/mL (≈ 42300 µM). Also, in data set [2], the “Inhibitor effectiveness in words” value is “effective inhibitor” and the “Inhibitor Activity (IA)” value came to 2.

As for `c1ccc2c(c1)nnn2CN1CCN(Cn2nnc3ccccc32)CC1` [BTA-P, N,N'-bis(benzotriazol-1-ylmethyl) piperazine], the Stability of dispersion entry is “homogeneous stable dispersion” in data set [3] (direct milling in cationic ink extender CIE 94, about 18 hours) and “stable homogenous paste” in data set [1] (setting [5]). Besides, the “Stability of ink mixture” value in data set [1] (setting [4]) is “colloidally stable”. Further, the “Solubility in iPrOH” value in “physchem” (1440 min) is on record as 0.007 % BY WT. The molecule further yielded a solubility at 24 h in “physchem” of 10 µg/mL (≈ 28.7 µM). Further, in data set [2], the “Inhibitor Activity (IA)” value came out at 1.
